The source made the active and inactive calls.
Experiments:
[1] = HEp-2 cell cytotoxicity, dose response, cytotoxicity control for RSV inhibitor project, HTS (AID 2410); format: functional; settings: human respiratory syncytial virus
[2] = biological target: Cytochrome P450 2C19 (Homo sapiens, UniProt P33261); assay: Cytochrome panel assay with activity outcomes. Panel member name: p450-cyp2c19 Compounds with AC50 equal or less than 10 uM are considered active; format: functional; settings: read-out: AC50
Sequence of Cytochrome P450 2C19 (P33261 whole entry): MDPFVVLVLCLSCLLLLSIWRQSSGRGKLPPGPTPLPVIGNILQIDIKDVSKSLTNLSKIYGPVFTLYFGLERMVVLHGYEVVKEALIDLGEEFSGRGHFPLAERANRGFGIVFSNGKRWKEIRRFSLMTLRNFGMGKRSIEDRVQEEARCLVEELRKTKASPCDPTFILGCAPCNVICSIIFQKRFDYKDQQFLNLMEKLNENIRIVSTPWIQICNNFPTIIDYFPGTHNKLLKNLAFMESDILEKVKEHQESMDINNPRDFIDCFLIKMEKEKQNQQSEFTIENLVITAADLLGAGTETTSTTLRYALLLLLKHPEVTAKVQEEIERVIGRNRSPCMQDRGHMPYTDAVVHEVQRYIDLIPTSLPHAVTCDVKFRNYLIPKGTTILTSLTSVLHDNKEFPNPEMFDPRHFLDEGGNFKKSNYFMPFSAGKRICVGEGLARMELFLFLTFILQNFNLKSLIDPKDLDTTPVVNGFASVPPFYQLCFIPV

[3] = biological target: Cytochrome P450 2D6 (Homo sapiens, UniProt P10635);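 further: CYP2D6 member of a cytochrome P450 panel assay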
Sequence of Cytochrome P450 2D6 (P10635 whole entry): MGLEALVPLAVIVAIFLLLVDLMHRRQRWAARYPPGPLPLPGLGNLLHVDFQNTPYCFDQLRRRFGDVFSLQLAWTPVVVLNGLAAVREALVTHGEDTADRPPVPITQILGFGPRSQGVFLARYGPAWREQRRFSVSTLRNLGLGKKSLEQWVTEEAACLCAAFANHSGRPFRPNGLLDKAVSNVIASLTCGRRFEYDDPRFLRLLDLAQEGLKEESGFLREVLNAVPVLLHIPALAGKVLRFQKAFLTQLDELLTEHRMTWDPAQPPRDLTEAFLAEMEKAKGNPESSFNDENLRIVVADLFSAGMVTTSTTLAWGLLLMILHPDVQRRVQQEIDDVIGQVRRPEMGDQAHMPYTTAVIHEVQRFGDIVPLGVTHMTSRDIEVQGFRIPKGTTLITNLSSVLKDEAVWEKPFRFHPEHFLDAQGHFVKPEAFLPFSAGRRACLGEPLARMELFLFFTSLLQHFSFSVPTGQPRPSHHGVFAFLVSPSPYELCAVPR

[4] = Luminescence Cell-Based Dose Response HTS to Identify Activators of Luciferase Translation or Activity in H4 […] Cells. [Related pubchem assays: 1829 (Project Summary), 1814 (Primary HTS)]; format: functional
[5] = biological target: T1, Cytochrome P450 1A2 (Homo sapiens, UniProt P05177);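 further: PubChem cytochrome P450 panel assay, CYP1A2 panel member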
T1 sequence (P05177 whole entry): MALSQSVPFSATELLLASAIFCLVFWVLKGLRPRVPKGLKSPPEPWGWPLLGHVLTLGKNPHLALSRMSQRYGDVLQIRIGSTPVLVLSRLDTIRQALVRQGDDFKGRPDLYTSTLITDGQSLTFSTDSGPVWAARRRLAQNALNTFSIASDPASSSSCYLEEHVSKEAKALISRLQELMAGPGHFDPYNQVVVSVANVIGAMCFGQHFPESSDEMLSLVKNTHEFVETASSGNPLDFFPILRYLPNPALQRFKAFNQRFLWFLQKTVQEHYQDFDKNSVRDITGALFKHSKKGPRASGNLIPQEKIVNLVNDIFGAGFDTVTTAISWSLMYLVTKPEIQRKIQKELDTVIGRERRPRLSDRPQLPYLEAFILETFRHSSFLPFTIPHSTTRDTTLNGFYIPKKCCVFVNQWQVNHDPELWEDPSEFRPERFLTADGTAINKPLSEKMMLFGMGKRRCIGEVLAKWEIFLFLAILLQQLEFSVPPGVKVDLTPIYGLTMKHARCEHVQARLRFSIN

[6] = biological target: Cytochrome P450 3A4 (Homo sapiens, UniProt P08684);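 further: CYP3A4 tested as one member of a cytochrome P450 panel screen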
Sequence of Cytochrome P450 3A4 (P08684 whole entry): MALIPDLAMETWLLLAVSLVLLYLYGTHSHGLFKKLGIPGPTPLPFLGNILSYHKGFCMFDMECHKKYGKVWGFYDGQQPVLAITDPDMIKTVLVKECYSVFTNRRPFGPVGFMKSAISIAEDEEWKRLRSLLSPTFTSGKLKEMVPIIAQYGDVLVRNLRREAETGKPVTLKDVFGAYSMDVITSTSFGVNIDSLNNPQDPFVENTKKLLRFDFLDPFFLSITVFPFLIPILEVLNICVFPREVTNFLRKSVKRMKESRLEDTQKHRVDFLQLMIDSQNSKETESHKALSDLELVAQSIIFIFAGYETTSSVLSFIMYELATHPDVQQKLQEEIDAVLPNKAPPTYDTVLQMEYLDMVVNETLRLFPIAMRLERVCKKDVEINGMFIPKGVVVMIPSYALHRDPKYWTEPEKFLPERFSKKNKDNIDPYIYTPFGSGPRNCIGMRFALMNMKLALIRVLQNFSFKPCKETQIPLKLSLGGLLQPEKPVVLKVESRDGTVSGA

[7] = biological target: Cytochrome P450 2C9 (Homo sapiens, UniProt P11712)
Sequence of Cytochrome P450 2C9 (P11712 whole entry): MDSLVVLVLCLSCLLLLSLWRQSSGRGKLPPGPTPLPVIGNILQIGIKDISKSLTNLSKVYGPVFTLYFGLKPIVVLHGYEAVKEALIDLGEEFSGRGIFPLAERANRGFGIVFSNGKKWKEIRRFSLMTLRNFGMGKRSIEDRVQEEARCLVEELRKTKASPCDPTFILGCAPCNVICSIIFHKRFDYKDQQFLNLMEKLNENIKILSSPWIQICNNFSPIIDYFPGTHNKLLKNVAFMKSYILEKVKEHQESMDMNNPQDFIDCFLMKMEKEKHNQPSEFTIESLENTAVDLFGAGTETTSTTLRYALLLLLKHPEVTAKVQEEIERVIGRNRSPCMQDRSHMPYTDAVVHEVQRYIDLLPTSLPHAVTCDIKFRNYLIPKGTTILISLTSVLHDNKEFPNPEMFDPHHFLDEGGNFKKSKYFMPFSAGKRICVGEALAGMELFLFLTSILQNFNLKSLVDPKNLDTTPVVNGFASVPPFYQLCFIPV

[8] = biological target: T2, Rac GTPase-activating protein 1 (Homo sapiens, UniProt Q9H0H5); assay: MgcRacGAP GTPase-activating activity inhibitors, confirmation, biochemical, ADP Hunter fluorescence, primary and confirmatory (AID 624330); format: functional
T2 sequence (Q9H0H5 whole entry): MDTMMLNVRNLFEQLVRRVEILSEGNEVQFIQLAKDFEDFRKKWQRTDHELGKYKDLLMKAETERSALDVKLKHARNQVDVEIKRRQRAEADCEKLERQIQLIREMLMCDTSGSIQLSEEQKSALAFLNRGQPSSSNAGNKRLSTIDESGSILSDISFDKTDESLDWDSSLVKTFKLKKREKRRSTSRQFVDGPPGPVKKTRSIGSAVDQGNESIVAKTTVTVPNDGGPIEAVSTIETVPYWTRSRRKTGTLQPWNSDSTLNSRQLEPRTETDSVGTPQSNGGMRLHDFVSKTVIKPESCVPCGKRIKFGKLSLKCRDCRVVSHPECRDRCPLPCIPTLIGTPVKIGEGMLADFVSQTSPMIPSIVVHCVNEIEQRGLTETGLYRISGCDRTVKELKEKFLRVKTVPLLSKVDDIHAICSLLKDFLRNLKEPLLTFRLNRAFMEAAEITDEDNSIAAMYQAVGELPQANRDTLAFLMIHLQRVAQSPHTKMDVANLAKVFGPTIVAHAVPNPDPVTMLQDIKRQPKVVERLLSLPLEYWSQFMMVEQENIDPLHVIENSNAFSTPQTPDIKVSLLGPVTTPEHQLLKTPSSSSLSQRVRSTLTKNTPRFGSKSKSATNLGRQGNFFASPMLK

[9] = inhibitors of intracellular T. cruzi replication, confirmation, NIH3T3 host cells, beta-gal luminescence (AID 2044); format: functional, cell-based;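 further: intracellular parasites grown in NIH/3T3 mouse fibroblasts as host cells; luminescent beta-galactosidase reporter signal from transgenic T. cruzi replicating inside host cells; inhibitors lower the luminescence signal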
[10] = cytotoxicity toward NIH3T3 fibroblasts, dose response, counter-screen, cell-based, ATP luminescence, mouse fibroblasts (AID 2010); format: functional;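 further: cells exposed to compound for about 90 hours before reading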
[11] = test system: H4; assay: Luminescence Cell-Based Dose Response HTS to Identify Activators of 5'UTR Stem-Loop Driven Prion Protein mRNA Translation in H4 Neuroglioblastoma Cells. [Related pubchem assays: 1829 (Project Summary), 1814 (Primary HTS)]; format: functional; settings: Homo sapiens
[12] = biological target: T3, Corticotropin-releasing factor receptor 2/Corticotropin-releasing factor-binding protein (Homo sapiens, UniProt P24387+Q13324); assay: activators of CRF receptor 2 with binding protein – uHTS hits, confirmation (AID 602473); format: functional; settings: read-out: EC50_Mean
T3 sequence (Q13324 whole entry): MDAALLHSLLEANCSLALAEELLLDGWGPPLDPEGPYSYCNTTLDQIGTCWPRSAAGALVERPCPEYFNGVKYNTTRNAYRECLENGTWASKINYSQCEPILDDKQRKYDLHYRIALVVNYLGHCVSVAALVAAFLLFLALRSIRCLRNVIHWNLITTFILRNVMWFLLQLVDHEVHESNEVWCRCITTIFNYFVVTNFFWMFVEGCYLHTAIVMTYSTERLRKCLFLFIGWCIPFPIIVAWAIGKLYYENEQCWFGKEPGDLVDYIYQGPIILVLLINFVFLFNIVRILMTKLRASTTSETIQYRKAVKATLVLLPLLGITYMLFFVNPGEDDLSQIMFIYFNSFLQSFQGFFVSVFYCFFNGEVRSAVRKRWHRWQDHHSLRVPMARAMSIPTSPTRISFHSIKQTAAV
T3 sequence (P24387 whole entry): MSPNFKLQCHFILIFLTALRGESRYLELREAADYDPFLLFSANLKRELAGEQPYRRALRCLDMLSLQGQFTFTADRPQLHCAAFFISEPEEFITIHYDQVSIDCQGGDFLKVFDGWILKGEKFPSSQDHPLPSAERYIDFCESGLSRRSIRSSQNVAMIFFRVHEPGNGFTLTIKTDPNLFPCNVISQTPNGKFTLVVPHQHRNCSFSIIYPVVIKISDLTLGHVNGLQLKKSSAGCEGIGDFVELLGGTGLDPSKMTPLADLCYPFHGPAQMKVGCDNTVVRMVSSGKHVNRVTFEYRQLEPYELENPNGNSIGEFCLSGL

## O=C(N/N=C/c1ccc(Br)s1)c1c[nH]c2ccccc12
[1]
  CC50: 37.3 µM (active)

## CCOc1c2ccc(C(=O)NCc3ccc(OC(F)(F)F)cc3)cc2nn1C
[2]
  AC50: 20 µM (inconclusive)
[3]
  AC50: 3.16 µM (inconclusive)

## CSc1ccc(CNC(=O)Cc2ccc(NC(=O)C3=C(C)OCCS3)cc2)cc1
[4]
  EC50: 1.92 µM (active)

## NC[C@@H]1O[C@H](c2ccccc2)Cc2c1ccc(O)c2O
[3]
  AC50: 31.6 µM (inconclusive)
[5]
  AC50: 15.8 µM (inconclusive)
[6]
  AC50: 31.6 µM (inconclusive)

## CN1CCN(c2ncc3nc(-c4ccccc4)c(=O)n(Cc4cccs4)c3n2)CC1
[5]
  AC50: 15.8 µM (inconclusive)

## CC(=O)[C@@H]1CC[C@H]2[C@H]3CC[C@H]4C[C@@H](O)CC[C@]4(C)[C@@H]3CC[C@]12C
[2]
  AC50: 20 µM (inconclusive)
[5]
  AC50: 10 µM (inconclusive)
[6]
  AC50: 15.8 µM (inconclusive)

## O=S(=O)(c1ccccc1)N1CCC[C@@]2(CCN(Cc3ccccc3)C2)C1
[5]
  AC50: 20 µM (inconclusive)
[6]
  AC50: 1.26 µM (inconclusive)

## O=C(c1cnccn1)N1CCC2(CCCN(c3ccc(-c4ccccc4)cc3)C2)CC1
[5]
  AC50: 25.1 µM (inconclusive)
[7]
  AC50: 12.6 µM (inconclusive)

## Nc1nc(CSc2nnnn2-c2ccc(Cl)cc2)nc(N2CCOCC2)n1
[2]
  AC50: 1 µM (inconclusive)
[3]
  AC50: 2.51 µM (inconclusive)
[5]
  AC50: 2.51 µM (inconclusive)
[7]
  AC50: 5.62 µM (inconclusive)

## COc1cc(/C=N/NC(=O)CCc2nnc(O)nc2O)ccc1O
[8]
  IC50: 32.5 µM (active)

## NC(=O)OC[C@H](O)COc1ccc(Cl)cc1
[5]
  AC50: 10 µM (inconclusive)

## Cc1ccccc1[C@]1(C)ON(c2ccccc2C(F)(F)F)C1=O
[1]
  CC50: 21.8 µM (active)

## CCC(C)OC(=O)C1=C(C)NC(=O)CC1c1ccccc1OC (centres undefined)
[5]
  AC50: 15.8 µM (inconclusive)
[6]
  AC50: 39.8 µM (inconclusive)

## COc1cccc(C(=O)N2CCN(C3CCN(Cc4ccccc4)CC3)CC2)c1OC
[8]
  IC50: 120 µM (active)

## CN1CCc2nc3ccc(F)cc3c(C(N)=O)c2C1
[2]
  AC50: 39.8 µM (inconclusive)
[5]
  AC50: 25.1 µM (inconclusive)
[7]
  AC50: 17.8 µM (inconclusive)

## Cc1cccc(CNc2ccnc(-c3ccccc3C(F)(F)F)n2)c1
[3]
  AC50: 25.1 µM (inconclusive)
[6]
  AC50: 3.16 µM (inconclusive)
[7]
  AC50: 1.26 µM (inconclusive)

## COc1cc(/C=C/C(=O)OCC(=O)Nc2ccc(S(=O)(=O)N3CCCC3)cc2)ccc1O
[8]
  IC50: 60 µM (active)

## COc1ccc(C(=O)Nc2ccccc2)cc1NC(=O)c1ccc([N+](=O)[O-])cc1
[1]
  CC50: > 50 µM (active)
[9]
  EC50: 1.33 µM (active)
[10]
  EC50: > 60 µM (not active)

## CCCCN(CCCC)CCCOC(=O)c1ccc(N)cc1 [BUTACAINE]
[5]
  AC50: 10 µM (inconclusive)

## Cc1nc2cnc(N3CCN(C)CC3)nc2n(Cc2cccs2)c1=O
[3]
  AC50: 15.8 µM (inconclusive)
[6]
  AC50: 25.1 µM (inconclusive)

## COc1ccccc1CN1CC[C@@]2(CCCN(C(=O)Oc3ccccc3)C2)C1
[5]
  AC50: 10 µM (inconclusive)
[6]
  AC50: 31.6 µM (inconclusive)

## CCOC(=O)c1c(C)[nH]c(N=Nc2ccccc2)c1C
[1]
  CC50: 34.9 µM (active)

## CCc1ccc(OCCOCCN2CCN(C)CC2)cc1
[8]
  IC50: 89.4 µM (active)

## O=C1C(/C=N/c2ccc(F)cc2)=C(O)c2ccccc21
[4]
  EC50: 0.173 µM (active)
[11]
  EC50: 0.38 µM (active)

## COC(=O)c1nn(-c2ccccc2)c(Cl)c1/C=N/OCc1ccc(Cl)cc1Cl
[1]
  CC50: 23.8 µM (active)

## CC(C)CN1CCCC2(CCN(C(=O)c3cc(C(F)(F)F)cc(C(F)(F)F)c3)CC2)C1
[5]
  AC50: 12.6 µM (inconclusive)
[6]
  AC50: 15.8 µM (inconclusive)
[7]
  AC50: 39.8 µM (inconclusive)

## COc1ccccc1OCCCCCCN1CCOCC1
[8]
  IC50: 184 µM (active)

## COc1cc(/C=N/NC(=O)c2ccc(-n3cccc3)cc2)ccc1O
[8]
  IC50: 23.9 µM (active)

## COc1ccccc1NC(=O)C1CCN(S(=O)(=O)c2ccc3c(c2)NC(=O)C(C)S3)CC1 (centres undefined)
[1]
  CC50: 20.2 µM (active)

## Cc1nc(N)sc1CCN [AMTHAMINE]
[5]
  AC50: 31.6 µM (inconclusive)

## Cc1c(N(C)C)c(=O)n(-c2ccccc2)n1C [AMINOPYRINE]
[5]
  AC50: 10 µM (inconclusive)

## CC(C)C(=O)/N=c1\sc2cccc(F)c2n1C
[1]
  CC50: > 50 µM (active)

## CCOc1ccc(-c2cc(C(=O)N/N=C(\C)c3cccnc3)c3ccccc3n2)cc1
[11]
  EC50: 84.3 µM (inconclusive)

## O=C(NCCc1c[nH]c2ccccc12)c1cnc2sccn2c1=O
[4]
  EC50: 53 µM (active)
[11]
  EC50: 54.8 µM (inconclusive)

## COc1ccc(CN2CCN(Cc3cccc(F)c3)CC2)cc1OC
[8]
  IC50: 83 µM (active)

## CC(=O)O[C@H]1CC[C@@]2(C)C(=CC[C@@H]3[C@H]4CC[C@@H]([C@H](C)C(=O)O)[C@]4(C)CC[C@H]32)C1
[5]
  AC50: 3.16 µM (inconclusive)

## CNC(=O)C1CCN(S(=O)(=O)c2c(C)noc2/C=C/c2ccc(OC)cc2)CC1
[12]
  EC50: > 53 µM (inactive)

## COc1ccc(/C=N/c2ccc3[nH]ncc3c2)c(O)c1
[8]
  IC50: 35.3 µM (active)

## CCc1nnc(N/N=C/c2c(C)[nH]c3ccccc23)n1N
[8]
  IC50: 51.7 µM (active)

## O=c1c(-c2cccc(Cl)c2)nc2cncnc2n1Cc1ccccc1
[2]
  AC50: 0.0398 µM (inconclusive)
[3]
  AC50: 39.8 µM (inconclusive)

## COc1ccc(C(=O)N2CCC3(CCCN(C(=O)Nc4cccc(C#N)c4)C3)CC2)cc1
[2]
  AC50: 39.8 µM (inconclusive)
[5]
  AC50: 15.8 µM (inconclusive)
[7]
  AC50: 39.8 µM (inconclusive)

## O=C(COc1cccc2ccccc12)N/N=C/c1ccc(Sc2nc3ccccc3s2)o1
[1]
  CC50: 10.8 µM (active)

## COc1ccc(NCCC#N)cc1
[8]
  IC50: 79.1 µM (active)

## O=C(CN1CCN(S(=O)(=O)c2ccc(Br)cc2)CC1)N/N=C/c1ccc(Br)s1
[1]
  CC50: 22.2 µM (active)
[9]
  EC50: 2.55 µM (active)
[10]
  EC50: > 60 µM (not active)

## CC(=C/c1ccccc1)/C=N/n1c(S)nnc1-c1ccco1
[8]
  IC50: 86.4 µM (active)

## O=C(Cn1c(C(=O)NCC2CCCO2)cc2sccc21)c1ccccc1 (centres undefined)
[8]
  IC50: 102 µM (active)

Source: ChEMBL document CHEMBL1201862, “PubChem BioAssay data set” (2004)
